Nine compounds from patent publication US20220079931A1, “ESTROGEN RECEPTOR PROTEIN DEGRADERS” (THE REGENTS OF THE UNIVERSITY OF MICHIGAN, priority 2019, published 2022) can be followed below.

Structures are written as SMILES.

The target in one experiment is T1, VHL-ElonginBC complex (Homo sapiens, UniProt P40337).
T1 construct: His-TEV (His-tag with TEV protease site) (cleaved yes); made in house; host or cells: E. coli BL21(DE3)
Put plainly: Fluorescence-polarization (FP) competitive binding assay for VHL. The conditions noted are these: VHL ligands; VHL-ElonginBC complex and fluorescent probe both 5 nM; read-out: FP Binding affinity IC50. As for the experimental part:
Cloning and Purification of VHL-ElonginBC complex. The DNA sequence of VHL (coding for residues 54-213) was constructed by PCR and inserted into a His-TEV expression vector^58 using ligation-independent cloning. The DNA sequences of Elongin B (encoding residues 1-118) and Elongin C (encoding residues 1-96) were constmcted by PCR and inserted into pCDFDuet 1 using Gibson assembly.^59 BL21(DE3) cells were transformed simultaneously with both plasmids and grown in Terrific Broth at 37° C. until an OD600 of 1.2. The cells were induced overnight with 0.4 mM IPTG at 24° C. Pelleted cells were freeze-thawed then resuspended in 20 mM Tris HCl pH7.0, 200 mM NaCl and 0.1% β-mercaptoethanol (bME) containing protease inhibitors. The cell suspension was lysed by sonication and debris removed via centrifugation. The supernatant was incubated at 4° C. for 1 hr with Ni-NTA (Qiagen) pre-washed in 20 mM Tris-HCl pH 7.0, 200 mM NaCl and 10 mM Imidazole. The protein complex was eluted in 20 mM Tris-HCl pH 7.0, 200 mM NaCl and 300 mM Imidazole, dialyzed into 20 mM Tris-HCl pH 7.0, 150 mM NaCl, and 0.01% bME and incubated with TEV protease overnight at 4° C. The protein sample was reapplied to the Ni-NTA column to remove the His-tag. The flow through containing the VHL complex was diluted to 75 mM NaCl and applied to a HiTrap Q column (GE Healthcare). The sample was eluted with a salt gradient (0.075-1 M NaCl), concentrated and further purified on a Superdex S75 column (GE Healthcare) pre-equilibrated with 20 mM Bis-Tris 7.0, 150 mM NaCl and 1 mM DTT. Samples were aliquoted and stored at −80° C.
Binding Affinities of VHL ligands to VHL. A fluorescence-polarization (FP) competitive assay was established using VHL-ElonginBC complex and a fluorescently tagged probe (SI). The IC50 and Ki values of VHL ligands were determined in competitive binding experiments. Mixtures of 5 μL of compounds in DMSO and 95 μL of preincubated protein/tracer complex solution were added into assay plates which were incubated at rt for 60 min with gentle shaking. Final concentrations of VHL-ElonginBC complex and fluorescent probe were both 5 nM. Negative controls containing protein/probe complex only (equivalent to 0% inhibition) and positive controls containing only free probes (equivalent to 100% inhibition) were included in each assay plate. FP values in millipolarization units (mP) were measured using the Infinite M-1000 plate reader (Tecan U.S., Research Triangle Park, N.C.) in Microfluor 1 96-well, black, round-bottom plates (Thermo Scientific, Waltham, Mass.) at an excitation wavelength of 485 nm and an emission wavelength of 530 nm. IC50 values were determined by nonlinear regression fitting of the competition curves. Ki values of competitive inhibitors were obtained directly by nonlinear regression fitting, based upon the KD values of the probe and concentrations of the protein and probe in the competitive assays. All the FP competitive experiments were performed in duplicate in three independent experiments.
Usually IC50 stands for the concentration needed to halve the response being measured. In the case of `CC(=O)N[C@H](C(=O)N1C[C@H](O)C[C@H]1C(=O)N[C@@H](C)c1ccc(Cl)cc1)C(C)(C)C` [43a, (2S,4R)-1-((S)-2-acetamido-3,3-dimethylbutanoyl)-N—((S)-1-(4-chlorophenyl)ethyl)-4-hydroxypyrrolidine-2-carboxamide], the IC50 amounted to 7.87 ± 0.642 µM.
The same measure, in the same setting: as for `C#Cc1ccc([C@H](C)NC(=O)[C@@H]2C[C@@H](O)CN2C(=O)[C@@H](NC(C)=O)C(C)(C)C)cc1` [44a, (2S,4R)-1-((S)-2-acetamido-3,3-dimethylbutanoyl)-N—((S)-1-(4-ethynylphenyl)ethyl)-4-hydroxypyrrolidine-2-carboxamide], the figure is 0.879 ± 0.097 µM; as for `CC(=O)N[C@H](C(=O)N1C[C@H](O)C[C@H]1C(=O)N[C@@H](C)c1ccc(C#N)cc1)C(C)(C)C` [45a, (2S,4R)-1-((S)-2-acetamido-3,3-dimethylbutanoyl)-N—((S)-1-(4-cyanophenyl)ethyl)-4-hydroxypyrrolidine-2-carboxamide], 4.83 ± 0.418 µM.
Turning to `CC(=O)N[C@H](C(=O)N1C[C@H](O)C[C@H]1C(=O)N[C@@H](C)c1ccc(C2CC2)cc1)C(C)(C)C` [46a, (2S,4R)-1-((S)-2-acetamido-3,3-dimethylbutanoyl)-N—((S)-1-(4-cyclopropylphenyl)ethyl)-4-hydroxypyrrolidine-2-carboxamide], the IC50 worked out at 6.11 ± 0.82 µM.

Another experiment addresses T2, ERα (Homo sapiens, UniProt P03372).
T2 sequence (P03372 1-595): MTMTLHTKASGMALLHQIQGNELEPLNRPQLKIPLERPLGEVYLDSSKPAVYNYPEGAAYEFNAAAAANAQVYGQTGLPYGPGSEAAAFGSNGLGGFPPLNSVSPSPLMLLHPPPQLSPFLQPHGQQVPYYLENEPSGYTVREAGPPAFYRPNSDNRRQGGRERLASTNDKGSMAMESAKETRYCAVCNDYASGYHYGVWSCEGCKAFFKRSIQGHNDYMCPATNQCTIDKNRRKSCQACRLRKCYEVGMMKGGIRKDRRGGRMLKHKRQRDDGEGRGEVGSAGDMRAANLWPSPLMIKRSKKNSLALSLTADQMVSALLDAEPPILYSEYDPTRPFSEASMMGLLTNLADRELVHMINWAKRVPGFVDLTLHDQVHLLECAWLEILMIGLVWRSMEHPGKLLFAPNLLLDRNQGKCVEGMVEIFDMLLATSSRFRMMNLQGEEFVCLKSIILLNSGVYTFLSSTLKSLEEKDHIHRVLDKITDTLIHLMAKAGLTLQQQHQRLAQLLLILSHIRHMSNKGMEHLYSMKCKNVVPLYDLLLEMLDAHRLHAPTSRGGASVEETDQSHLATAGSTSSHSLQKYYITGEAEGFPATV
Briefly: ER degradation by Western blotting in MCF-7 cells. The experiment is classed as cell-based. Details: host or cells: MCF-7. Conditions: 1 nM, 10 nM and 100 nM, 4 h, linkers containing 6-9 carbon atoms. The method, then:
FIG. 1 is an image showing the Western blotting analysis of ER protein in MCF-7 cells treated with Compounds of the Disclosure and control compounds. Cells were treated with different compounds for 4 h and whole cell lysates were then analyzed by Western blotting to examine the level of ER protein. GADPH protein was used for the loading control. The numbers below the panel represent the ERα/GADPH ratio normalized with the DMSO control at 100.
FIG. 2 is an image showing the Western blotting analysis of ER protein in the MCF-7 cells treated with indicated compounds at 1 nM, 10 nM and 100 nM. MCF-7 cells were treated with different compounds for 4 h and whole cell lysates were analyzed by Western blotting to examine the level of ER protein. GADPH protein was used for the loading control. The numbers below the panel represent the ERα/GADPH ratio normalized with the DMSO control at 100.
FIG. 7 is an image showing the ERα degradation dose-response Western blotting for compound 32 at 4 h in MCF-7 cells.
FIG. 9 is an image showing the time course of ERα degradation by Western blotting by compound 32 (30 nM) and fulvestrant (30 nM) in the MCF-7 cells.
Cell Culture. Human breast cancer cell lines MCF-7 (ATCC® HTB-22™) and T47D (ATCC® HTB-133™) were purchased from the American Type Culture Collection (ATCC), Manassas, Va., and maintained and cultured in Dulbecco's Modified Eagle's medium (DMEM) containing 10% fetal bovine serum, 1 unit/ml of penicillin and 1 μg/ml of streptomycin. Cells with 3-8 passages after purchase were used in experiments as indicated.
Western Blot Analysis. Western blot analysis was performed essentially as described previously (Hu et al, 2015, PMID: 26358219). Cells treated with indicated compounds were lysed in Radioimmunoprecipitation Assay Protein Lysis and Extraction Buffer (25 mmol/L Tris.HCl, pH 7.6, 150 mmol/L NaCl, 1% Nonidet P-40, 1% sodium deoxycholate, and 0.1% sodium dodecyl sulfate) containing proteinase inhibitor cocktail (Roche Diagnostics, Mannheim, Germany). After determination of protein concentration by BCA assay (Fisher Scientific, Pittsburgh, Pa.), equal amounts of total protein were electrophoresed through 10% SDS-polyacrylamide gels. The separated protein bands were transferred onto PVDF membranes (GE Healthcare Life Sciences, Marlborough, Mass.) and blotted against different antibodies, as indicated. The human estrogen receptor a antibodies (AB16460) were purchased from Abeam, Inc., Cambridge, Mass. The membranes were reblotted with horseradish peroxidase-conjugated anti-glyceraldehyde-3-phosphate dehydrogenase antibody (G9295) from Sigma-Aldrich Corporation, St. Louis, Mo. The blots were scanned and the band intensities were quantified using GelQuant.NET software as described in biochemlabsolutions.com. The relative mean intensity of target proteins was expressed after normalization to the intensity of glyceraldehyde-3-phosphate dehydrogenase bands from individual repeats.
Background: Immunoblotting shows a protein as a band on a membrane.
In the case of `CCN(CCCCCCCC(=O)N[C@H](C(=O)N1C[C@H](O)C[C@H]1C(=O)N[C@@H](C)c1ccc(-c2scnc2C)cc1)C(C)(C)C)CCOc1ccc(C(=O)c2c(-c3ccc(O)cc3)sc3cc(O)ccc23)cc1` [compound 15, (2S,4R)-1-((S)-2-(8-(Ethyl(2-(4-(6-hydroxy-2-(4-hydroxyphenyl)benzo[b]thiophene-3-carbonyl)phenoxy)ethyl)amino)octanamido)-3,3-dimethylbutanoyl)-4-hydroxy-N—((S)-1-(4-(4-methylthiazol-5-yl)phenyl)ethyl)pyrrolidine-2-carboxamide], the “ER degradation (Western blotting)” value is given as “surprisingly effective in inducing ER degradation at concentrations as low as 1 nM”.
Still for that read-out and setting: as for `CCN(CCCCCC(=O)N[C@H](C(=O)N1C[C@H](O)C[C@H]1C(=O)N[C@@H](C)c1ccc(-c2scnc2C)cc1)C(C)(C)C)CCOc1ccc(C(=O)c2c(-c3ccc(O)cc3)sc3cc(O)ccc23)cc1` [compound 18, (2S,4R)-1-((S)-2-(6-(Ethyl(2-(4-(6-hydroxy-2-(4-hydroxyphenyl)benzo[b]thiophene-3-carbonyl)phenoxy)ethyl)amino)hexanamido)-3,3-dimethylbutanoyl)-4-hydroxy-N—((S)-1-(4-(4-methylthiazol-5-yl)phenyl)ethyl)pyrrolidine-2-carboxamide], the entry is “surprisingly effective in inducing ER degradation at concentrations as low as 1 nM”.
Still for that read-out and setting: as for `CCN(CCCCCCC(=O)N[C@H](C(=O)N1C[C@H](O)C[C@H]1C(=O)N[C@@H](C)c1ccc(-c2scnc2C)cc1)C(C)(C)C)CCOc1ccc(C(=O)c2c(-c3ccc(O)cc3)sc3cc(O)ccc23)cc1` [compound 19, (2S,4R)-1-((S)-2-(7-(Ethyl(2-(4-(6-hydroxy-2-(4-hydroxyphenyl)benzo[b]thiophene-3-carbonyl)phenoxy)ethyl)amino)heptanamido)-3,3-dimethylbutanoyl)-4-hydroxy-N—((S)-1-(4-(4-methylthiazol-5-yl)phenyl)ethyl)pyrrolidine-2-carboxamide], the entry is “surprisingly effective in inducing ER degradation at concentrations as low as 1 nM”; as for `CCN(CCCCCCCCC(=O)N[C@H](C(=O)N1C[C@H](O)C[C@H]1C(=O)N[C@@H](C)c1ccc(-c2scnc2C)cc1)C(C)(C)C)CCOc1ccc(C(=O)c2c(-c3ccc(O)cc3)sc3cc(O)ccc23)cc1` [compound 20, (2S,4R)-1-((S)-2-(9-(Ethyl(2-(4-(6-hydroxy-2-(4-hydroxyphenyl)benzo[b]thiophene-3-carbonyl)phenoxy)ethyl)amino)nonanamido)-3,3-dimethylbutanoyl)-4-hydroxy-N—((S)-1-(4-(4-methylthiazol-5-yl)phenyl)ethyl)pyrrolidine-2-carboxamide], “surprisingly effective in inducing ER degradation at concentrations as low as 1 nM”.
As for `CCN(CCCCCCCCCC(=O)N[C@H](C(=O)N1C[C@H](O)C[C@H]1C(=O)N[C@@H](C)c1ccc(-c2scnc2C)cc1)C(C)(C)C)CCOc1ccc(C(=O)c2c(-c3ccc(O)cc3)sc3cc(O)ccc23)cc1` [compound 21, (2S,4R)-1-((S)-2-(10-(Ethyl(2-(4-(6-hydroxy-2-(4-hydroxyphenyl)benzo[b]thiophene-3-carbonyl)phenoxy)ethyl)amino)decanamido)-3,3-dimethylbutanoyl)-4-hydroxy-N—((S)-1-(4-(4-methylthiazol-5-yl)phenyl)ethyl)pyrrolidine-2-carboxamide], the “ER degradation (Western blotting)” value is “surprisingly effective in inducing ER degradation at concentrations as low as 1 nM”.
